From publication PMC10997755, “Discovery of a small-molecule inhibitor that traps Polθ on DNA and synergizes with PARP inhibitors” (Nature Communications, 2024)
“And” between values parts separate entries of the source, which are not always exact repeats. Identical values can stand only once. “Also recorded” adds a separate entry of the source.

Assays:
[1] = Metabolic stability in liver microsomes; assay type: in vitro ADME; conditions: read-out: t1/2 liver microsomes
Polβ = target: T1, Polβ (Homo sapiens, UniProt P06746); experiment: Primer extension by recombinant Pols (selectivity); assay type: biochemical
T1 construct: gift: Dr. Wilson (NIEHS)

DLD1 BRCA2 -/- cells = experiment: Apoptosis assay (FITC active caspase-3); assay type: cell-based; set-up: FITC+ AVG / FITC- AVG: unit not given here; conditions: for % population FITC Caspase-3 Negative / % population FITC Caspase-3 Positive: bar matched by sums to 100; for FITC+ AVG / FITC- AVG: DLD1 BRCA2 null
Procedure: DLD1 BRCA2 -/-, DLD1 Parental cells were plated on six well plates and treated with RTX-161 1 day after plating. Medium was replaced every 2 days with RTX-161. Cells were harvested 6 days after plating for apoptosis assay using FITC active caspase-3 apoptosis kit (BD biosciences, catalog # 550480) according to manufacturer’s instructions and analyzed by FACS with Celesta (Becton Dickinson).

[2] = system: MMEJ reporter (EJ2-GFP) in U2OS cells; experiment: Chromosomal MMEJ GFP assay; assay type: cell-based; conditions: for % GFP/dsRED ratio, Combined mean: Combined EXP.1-3 (0 uM: 3.78889); for % GFP/dsRED ratio, mean per experiment: means of EXP.1, 2, 3 (0 uM: 4.4, 3.73333, 3.23333); for % GFP/dsRED ratio: single replicates of EXP.1-3
Procedure: U2OS cells harboring the chromosomal (EJ2-GFP cassette) MMEJ reporter were plated and treated with various concentrations of RTX-161 for 16 h. Cells were co-transfected with either pCMV–3x- NLS-I-SceI or control vector pCMV-3x-NLS using Lipofectamine 2000 (Invitrogen) along with dsRED-Mito cDNA (control for transfection efficiency). GFP^+ frequencies were measured 3 days post transfection by FACS using Facscanto (Becton Dickinson) in triplicates and corrected for transfection efficiency and background events.

Pol Eta = target: T2, Pol Eta (Homo sapiens, UniProt Q9Y253); experiment: Primer extension by recombinant Pols (selectivity); assay type: biochemical
T2 sequence (Q9Y253 1-713): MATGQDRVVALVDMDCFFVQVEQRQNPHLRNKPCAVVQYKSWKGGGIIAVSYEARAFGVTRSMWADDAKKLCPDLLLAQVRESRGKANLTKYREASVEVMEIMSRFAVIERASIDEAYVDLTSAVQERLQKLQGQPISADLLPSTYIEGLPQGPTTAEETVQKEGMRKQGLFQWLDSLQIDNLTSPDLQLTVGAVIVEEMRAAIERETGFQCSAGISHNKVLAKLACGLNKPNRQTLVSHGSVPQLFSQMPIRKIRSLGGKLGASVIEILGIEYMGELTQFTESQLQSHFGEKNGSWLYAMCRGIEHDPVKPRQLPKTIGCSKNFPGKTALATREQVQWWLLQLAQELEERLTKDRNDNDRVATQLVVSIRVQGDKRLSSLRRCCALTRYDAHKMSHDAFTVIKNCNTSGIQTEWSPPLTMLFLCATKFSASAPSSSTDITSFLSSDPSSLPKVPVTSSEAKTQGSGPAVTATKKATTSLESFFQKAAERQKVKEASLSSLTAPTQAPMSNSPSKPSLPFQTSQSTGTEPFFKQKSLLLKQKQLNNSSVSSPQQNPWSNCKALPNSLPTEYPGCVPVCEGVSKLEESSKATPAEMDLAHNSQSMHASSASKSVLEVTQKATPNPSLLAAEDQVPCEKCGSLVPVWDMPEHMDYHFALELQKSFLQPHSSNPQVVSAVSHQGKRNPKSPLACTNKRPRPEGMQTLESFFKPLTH

[3] = system: Brca1^CC/CC;Polq^-/- cells; experiment: Clonogenic assay; assay type: cell-based, mouse; conditions: for survival relative to 0 uM / survival relative to 0 uM, mean of the four experiments: cc POLQ KO; for survival relative to 0 uM: experiments 2023-04-07 and 2023-04-13; for survival relative to 0 uM, mean of the four experiments: last block without head (mean of 4)
Procedure: Cells were plated on six or twelve or twenty-four well plates. In six well plate, […], BRCA1 -/-, […]; In twelve well plate, […], BRCA1 -/-, PALB2 mut and 400 cells/ well of wildtype pair was plated; In twenty-four well plate, […], BRCA1 -/-, PALB2 mut and 300 cells/ well of wildtype pair was plated. […] The medium was replaced every 2 days until the colonies were ready for staining in 10–12 days. For staining: Medium was removed from plates, and cells were rinsed with PBS. Fixation was carried out with—Water: Ethanol: Acetic acid (5:4:1) for 30 min followed by staining of colonies with 0.5% crystal violet in Water: Ethanol (3:2) for 2 h at room temperature. The plates were rinsed with water and left for drying overnight at room temperature. Colonies were then counted and IC50 was calculated using results from 3 or more independent experiments. Response curves are shown as mean colony formation +/- S.E.M.

[4] = selectivity panel, Pol named in Supplementary Fig. 1h

CN(C(=O)Oc1ccc(C(F)(F)F)cc1C(F)(F)F)c1ccc(F)cc1 [MC160385]
half-life [1]: 6.2 min

CN(C(=O)Oc1c(N2CCN(CCO)C2=O)cc(C(F)(F)F)cc1C(F)(F)F)c1ccc(F)cc1 [RTx-161]
% Full Extension (Polβ; Pol Beta): 84.31%
% Inhibition Compared to Control (Polβ; Pol Beta): -0.98%
% Relative Maximum Extension (Polβ; Pol Beta): 100.98%
inhibition of primer extension (Polβ; [4]): no inhibition
% population FITC Caspase-3 Negative (DLD1 BRCA2 -/- cells; 10 uM RTX-161): 92%
% population FITC Caspase-3 Positive (DLD1 BRCA2 -/- cells; 10 uM RTX-161): 8%
% population FITC Caspase-3 Negative (DLD1 BRCA2 -/- cells; 20 uM RTX-161): 90%
% population FITC Caspase-3 Positive (DLD1 BRCA2 -/- cells; 20 uM RTX-161): 10%
FITC+ AVG (DLD1 BRCA2 -/- cells; 10 uM, left block of sheet): 8.433
FITC- AVG (DLD1 BRCA2 -/- cells; 10 uM, left block of sheet): 91.5667
FITC+ AVG (DLD1 BRCA2 -/- cells; 10 uM, middle block of sheet): 12.1
FITC- AVG (DLD1 BRCA2 -/- cells; 10 uM, middle block of sheet): 87.9
FITC+ AVG (DLD1 BRCA2 -/- cells; 10 uM, right block of sheet): 12.3333
FITC- AVG (DLD1 BRCA2 -/- cells; 10 uM, right block of sheet): 87.6667
FITC+ AVG (DLD1 BRCA2 -/- cells; 20 uM, left block of sheet): 9.633
FITC- AVG (DLD1 BRCA2 -/- cells; 20 uM, left block of sheet): 90.3667
FITC+ AVG (DLD1 BRCA2 -/- cells; 20 uM, middle block of sheet): 13.8333
FITC- AVG (DLD1 BRCA2 -/- cells; 20 uM, middle block of sheet): 86.1667
FITC+ AVG (DLD1 BRCA2 -/- cells; 20 uM, right block of sheet): 13.3333
FITC- AVG (DLD1 BRCA2 -/- cells; 20 uM, right block of sheet): 86.6667
apoptosis (DLD1 BRCA2 -/- cells; versus parental): selectively induced PARP cleavage and apoptosis
% GFP/dsRED ratio, Combined mean ([2]; 5 uM): 3.422%
% GFP/dsRED ratio, mean per experiment ([2]; 5 uM): 3.067% and 3.933% and 3.267%
% GFP/dsRED ratio ([2]; 5 uM): 2.8% and 4% and 2.5% and 3.3% and 3.6% and 3.5% and 3.1% and 4.2% and 3.8%
% GFP/dsRED ratio, Combined mean ([2]; 10 uM): 3.378%
% GFP/dsRED ratio, mean per experiment ([2]; 10 uM): 3.067% and 3.8% and 3.267%
% GFP/dsRED ratio ([2]; 10 uM): 2.9% and 3.3% and 2.6% and 3.2% and 3.9% and 3.4% and 3.1% and 4.2% and 3.8%
% GFP/dsRED ratio, Combined mean ([2]; 15 uM): 2.733%
% GFP/dsRED ratio, mean per experiment ([2]; 15 uM): 3.033% and 2.067% and 3.1%
% GFP/dsRED ratio ([2]; 15 uM): 2.9% and 2.2% and 3.3% and 2.8% (2×) and 2.1% and 3.4% and 1.9% and 3.2%
cellular MMEJ (GFP reporter) ([2]; 20 μM RTx-161): reduction in cellular MMEJ; also recorded: suppression of MMEJ
% GFP/dsRED ratio, Combined mean ([2]; 20 uM): 1.611%
% GFP/dsRED ratio, mean per experiment ([2]; 20 uM): 1.8% and 1.367% and 1.667%
% GFP/dsRED ratio ([2]; 20 uM): 1.9% and 1.3% and 1.8% and 1.6% (2×) and 1.5% and 1.2% and 1.7%
% Full Extension (Pol Eta; Pol Eta): 78.72%
% Inhibition Compared to Control (Pol Eta; Pol Eta): -2.54%
% Relative Maximum Extension (Pol Eta; Pol Eta): 102.54%
inhibition of primer extension (Pol Eta; [4]): no inhibition
survival relative to 0 uM ([3]; 150 cells/well, RTx-161 1.25 uM): 105.26% and 120.00%
survival relative to 0 uM ([3]; 150 cells/well, RTx-161 2.5 uM): 73.68% and 115.00%
survival relative to 0 uM ([3]; 150 cells/well, RTx-161 5 uM): 89.47% and 105.00%
survival relative to 0 uM ([3]; 150 cells/well, RTx-161 10 uM): 94.74% and 95.00%
survival relative to 0 uM ([3]; 150 cells/well, RTx-161 20 uM): 73.68% and 90.00%
survival relative to 0 uM ([3]; 300 cells/well, RTx-161 1.25 uM): 106.67% and 94.44%
survival relative to 0 uM ([3]; 300 cells/well, RTx-161 2.5 uM): 83.33%
survival relative to 0 uM ([3]; 300 cells/well, RTx-161 5 uM): 83.33% and 86.11%
survival relative to 0 uM ([3]; 300 cells/well, RTx-161 10 uM): 86.67% and 94.44%
survival relative to 0 uM ([3]; 300 cells/well, RTx-161 20 uM): 80.00% and 83.33%
survival relative to 0 uM, mean of the four experiments ([3]; RTx-161 1.25 uM): 106.59%
survival relative to 0 uM, mean of the four experiments ([3]; RTx-161 2.5 uM): 88.84%
survival relative to 0 uM, mean of the four experiments ([3]; RTx-161 5 uM): 90.98%
survival relative to 0 uM, mean of the four experiments ([3]; RTx-161 10 uM): 92.71%
survival relative to 0 uM, mean of the four experiments ([3]; RTx-161 20 uM): 81.75%
sensitivity of Brca1^CC/CC;Polq^-/- cells ([3]; compared to Brca1^CC/CC cells): resistant
